According to patent publication US9400281B2, “Method of screening of therapeutic agents for K-Ras mutant driven cancers” (PUSAN NATIONAL UNIVERSITY INDUSTRY-UNIVERSITY COOPERATION …, priority 2008, dated 2016):
Where “and” joins values, the source holds several entries; their conditions need not be identical. Equal values may be shown once. Read-outs that look alike come from different tables or passages of the source.

Legend:
[1] = tested on: K-Ras mutant cancer cell lines HCT116; experiment: Western blot of p53 and p21 expression in K-Ras mutant HCT116 cells; type: cell-based; settings: for fold induction at 10 µM: Homo sapiens, HCT-116, HCT116, 10 μM; for Protein expression ratio of compound to control, p21 / Protein expression ratio of compound to control, p53: HCT116, 10 μM, DMSO control = 1.0
Method: To confirm whether the compounds prepared according to Examples 1 to 5 are effective for inhibiting SNAIL-p53 binding at cell level, the compound was treated into K-Ras mutant cancer cell lines HCT116 and results were analyzed by western blotting.
Oncogenic K-ras suppresses the p53 activity through SNAIL. In the cell line HCT116, SNAIL is always expressed by K-Ras mutation and bound to p53 to suppress normal activity of p53. If the K-Ras mutant cancer cell line HCT116 is treated with a compound for suppressing SNAIL-p53 binding, p53 is normally activated and more expressed, and target genes of p53 are induced.
First, western blotting was performed to detect expression of p53 and p21, which is a target gene of p53. All cell lines used in the present invention were obtained from ATCC, and maintained in 10% FBS-containing RPMI-1640 or DMEM. Protein was extracted with RIPA buffer solution and a membrane loaded with cell lysate through typical SDS-PAGE and gel transfer method was prepared. After blocking with 5% non-fat dry milk, the membrane was subjected into a typical western blot procedure with an antibody corresponding to each gene. Antibodies used herein were obtained from Cell signaling, SantaCruz. p53 activity was confirmed by expression of p21, which is a target gene of p53.

SNAIL-p53 binding = experiment: GST pull down assay of SNAIL-p53 binding (Experimental Example 2); design: species or system human; settings: FIG. 21
Method: GST pull down assay is a method for identifying a binding degree of two proteins. GST-fused SNAIL protein and p53 recombinant protein were prepared and treated with the compound 5o or 7a to identify a binding degree of GST-SNAIL protein and p53 protein. […] If MDM2 is over-expressed, proteolysis of p53 is induced to suppress apoptosis occurring through target genes of p53, and an […] of cells is induced. Although MDM2 is a representative control factor of p53, MDM2 is not applied to K-Ras mutant disease or mutant p53 containing disease.
To perform GST pull down assay, three human SNAIL fragments (residues 1-90, 91-112, and 113-264) and p53 fragments (1-93 and 93-292) were expressed in E. coli as GST-fusion protein. Each of the fragments was loaded on to GSH-agarose, washed, and then eluted using a buffer containing 20 mM reduced glutathione. The eluted fractions were purified using an anionexchange chromatography (HitrapQ). The recombinant human p53 protein (residues 94-292) was expressed in E. coli using the vector pET28A which contains a hexa-histidine tag at the C terminus. The p53 protein including the hexa-histidine tag was purified using Ni-NTA affinity and a size exclusion chromatography (Superdex 200). To confirm the direct binding between p53 and SNAIL, agarose-bead conjugated GST or GST-SNAIL was incubated with His-p539 (histidine-p53) in PBS for 45 minutes at 4° C.. After washing with PBS, the precipitated protein was subjected into SDS-PAGE and western blotting.

[2] = tested on: A549 (K-Ras mutant cancer cell line); experiment: Cell death rate by tryphan blue cell counting, A549; type: cell-based; settings: A549 (A546 [sic])
Description: (§1) To confirm that the p53 induction of the compounds is related to K-Ras, A549 and HCT116, which are K-Ras mutant cancer cell lines, and MKN45, which is K-Ras wild type cancer cell line, were used.

[3] = tested on: HCT116 (K-Ras mutant cancer cell line); experiment: Cell death rate by tryphan blue cell counting, HCT116; type: cell-based
[4] = tested on: MKN45 (K-Ras wild type cancer cell line); experiment: Cell death rate by tryphan blue cell counting, MKN45; type: cell-based
Description: as §1

MDA-MB 468 = experiment: Western blot of p21 expression in mutant p53 MDA-MB 468 cells; type: cell-based, human; settings: for Expression ratio of gene to control, p21: DMSO control = 1.0
[5] = DMSO control = 1.0, read-out: Protein expression ratio of compound to control, p21
[6] = DMSO control = 1.0, read-out: Protein expression ratio of compound to control, p53

| melting point | Structure (SMILES) | fold induction at 10 µM [1, 5] | fold induction at 10 µM [1, 6] | other results |
| --- | --- | --- | --- | --- |
| 172 to 173 °C | CCNC1=CC(=O)c2c(OC)ccc(OC)c2C1=O [Compound 5b, 2-ethylamino-5,8-dimethoxy-1,4-naphthoquinone] |  |  |  |
| 175 to 176 °C | CCCNC1=CC(=O)c2c(OC)ccc(OC)c2C1=O [Compound 5c, 2-propylamino-5,8-dimethoxy-1,4-naphthoquinone] |  |  |  |
| 104 to 105 °C | CCCCNC1=CC(=O)c2c(OC)ccc(OC)c2C1=O [Compound 5d, 2-butylamino-5,8-dimethoxy-1,4-naphthoquinone] |  |  |  |
| 102 to 103 °C | CCCCCNC1=CC(=O)c2c(OC)ccc(OC)c2C1=O [Compound 5e, 2-pentylamino-5,8-dimethoxy-1,4-naphthoquinone] |  |  |  |
| 83 to 84 °C | CCCCCCNC1=CC(=O)c2c(OC)ccc(OC)c2C1=O [Compound 5f, 2-hexylamino-5,8-dimethoxy-1,4-naphthoquinone] |  |  |  |
| 74 to 75 °C | CCCCCCCNC1=CC(=O)c2c(OC)ccc(OC)c2C1=O [Compound 5g, 2-heptylamino-5,8-dimethoxy-1,4-naphthoquinone] |  |  |  |
| 81 to 82 °C | CCCCCCCCNC1=CC(=O)c2c(OC)ccc(OC)c2C1=O [Compound 5h, 2-octylamino-5,8-dimethoxy-1,4-naphthoquinone] |  |  |  |

The next lines start with the compound.

| Structure (SMILES) | melting point | fold induction at 10 µM [1, 5] | fold induction at 10 µM [1, 6] | other results |
| --- | --- | --- | --- | --- |
| CCCCCSC1=CC(=O)c2ccccc2C1=O [Compound 1e, 2-pentylthio-1,4-naphthoquinone] | 111 to 112 °C |  |  |  |
| CCCCCCSC1=CC(=O)c2ccccc2C1=O [Compound 1f, 2-hexylthio-1,4-naphthoquinone] | 101 to 102 °C |  |  |  |
| CCCCCCCSC1=CC(=O)c2ccccc2C1=O [Compound 1g, 2-heptylthio-1,4-naphthoquinone] | 114 to 115 °C |  |  |  |
| CCCCCCCCSC1=CC(=O)c2ccccc2C1=O [Compound 1h, 2-octylthio-1,4-naphthoquinone] | 114 to 115 °C |  |  |  |
| CCCCCCCCCSC1=CC(=O)c2ccccc2C1=O [Compound 1i, 2-nonylthio-1,4-naphthoquinone] | 105 to 106 °C |  |  |  |
| CCCCCCCCCCSC1=CC(=O)c2ccccc2C1=O [Compound 1j, 2-decylthio-1,4-naphthoquinone] | 101 to 102 °C |  |  |  |
| CCCCCCCCCNC1=CC(=O)c2c(OC)ccc(OC)c2C1=O [Compound 5i, 2-nonylamino-5,8-dimethoxy-1,4-naphthoquinone] |  | 4.6 | 1.6 |  |
| CCCCCCCCCCNC1=CC(=O)c2c(OC)ccc(OC)c2C1=O [Compound 5j, 2-decylamino-5,8-dimethoxy-1,4-naphthoquinone] | 86 to 87 °C | 5 | 1.3 |  |
| COc1ccc(OC)c2c1C(=O)C=C(SCCO)C2=O [Compound 5k, 2-(2-hydroxyethylthio)-5,8-dimethoxy-1,4-naphthoquinone] | 117 to 118 °C | 0.2 | 0.3 |  |
| COc1ccc(OC)c2c1C(=O)C=C(SCCCO)C2=O [Compound 5l, 2-(3-hydroxypropylthio)-5,8-dimethoxy-1,4-naphthoquinone] |  | 0.1 | 0.6 |  |
| COc1ccc(OC)c2c1C(=O)C=C(SCCCCO)C2=O [Compound 5m, 2-(4-hydroxybutylthio)-5,8-dimethoxy-1,4-naphthoquinone] | 122 to 123 °C | 0.1 | 0.8 |  |
| COc1ccc(OC)c2c1C(=O)C=C(SCCCCCCO)C2=O [Compound 5n, 2-(6-hydroxyhexylthio)-5,8-dimethoxy-1,4-naphthoquinone] |  | 0.2 | 1.1 |  |
| COc1ccc(OC)c2c1C(=O)C=C(SCCCCCCCCCCC(=O)O)C2=O [Compound 5p, 11-(5,8-dimethoxy-1,4-dioxo-naphthalen-2-ylthio)undecanoic acid] | 146 to 147 °C | 0.3 | 1.6 |  |
| COc1ccc(OC)c2c1C(=O)C=C(SCCC(=O)N1CCN(c3ccccc3)CC1)C2=O [Compound 6a, 5,8-dimethoxy-2-(3-oxo-3-(4-phenylpiperazin-1-yl)propylthio)naphthalene-1,4-dione] |  | 2.8 | 1.9 |  |
| COc1ccc(OC)c2c1C(=O)C=C(SCCCCCCCCCCC(=O)OCC(C)C)C2=O [Compound 7a, isobutyl-11-(5,8-dimethoxy-1,4-dioxo-1,4-dihydronaphthalene-2-ylthio)undecanoate] |  | 7.2 | 4.2 | Binding between GST-SNAIL protein and p53 (SNAIL-p53 binding): substantially weak; Cancer cell death rate of compounds with respect to control ([2]; 5 μM): 23 ± 3.4%; Cancer cell death rate of compounds with respect to control ([2]; 20 μM): 45 ± 2.3%; Cancer cell death rate of compounds with respect to control ([3]; 5 μM): 32 ± 2.1%; Cancer cell death rate of compounds with respect to control ([3]; 20 μM): 57 ± 2.8%; Cancer cell death rate of compounds with respect to control ([4]; 5 μM): 1 ± 1.0%; Cancer cell death rate of compounds with respect to control ([4]; 20 μM): 3 ± 2.4% |
| COc1ccc(OC)c2c1C(=O)C=C(SCCCCCCCCCCC(=O)NCC(C)C)C2=O [Compound 7b, 11-(5,8-dimethoxy-1,4-dioxo-1,4-dihydronaphthalene-2-ylthio)-N-isobutyl undecanamide] |  |  |  | Protein expression ratio of compound to control, p21 [1]: 7.0; Protein expression ratio of compound to control, p53 [1]: 4.6 |
| COc1ccc(OC)c2c1C(=O)C=C([S+]([O-])CCCCCCCCCCC(=O)OCC(C)C)C2=O (centres unmarked) [Compound 8, isobutyl 11-(5,8-dimethoxyl-1,4-dioxo-1,4-dihydronaphthalene-2-ylsulfinyl) undecanoate] |  |  |  | Protein expression ratio of compound to control, p21 [1]: 1.7; Protein expression ratio of compound to control, p53 [1]: 2.3 |
| COc1ccc(C2=N[C@@H](c3ccc(Cl)cc3)[C@@H](c3ccc(Cl)cc3)N2C(=O)N2CCNC(=O)C2)c(OC(C)C)c1 [Nutlin-3, reference compound] |  |  |  | Binding between GST-SNAIL protein and p53 (SNAIL-p53 binding): did not inhibit SNAIL-p53 binding; Cancer cell death rate of compounds with respect to control ([2]; 5 μM): 11 ± 4.0%; Cancer cell death rate of compounds with respect to control ([2]; 10 μM): 19% and 19 ± 4.5%; Cancer cell death rate of compounds with respect to control ([2]; 20 μM): 25 ± 4.7%; Cancer cell death rate of compounds with respect to control ([3]; 5 μM): 21 ± 2.4%; Cancer cell death rate of compounds with respect to control ([3]; 10 μM): 32% and 32 ± 2.9%; Cancer cell death rate of compounds with respect to control ([3]; 20 μM): 40 ± 3.1%; Cancer cell death rate of compounds with respect to control ([4]; 5 μM): 28 ± 2.2%; Cancer cell death rate of compounds with respect to control ([4]; 10 μM): 38% and 38 ± 2.9%; Cancer cell death rate of compounds with respect to control ([4]; 20 μM): 47 ± 2.2%; Expression ratio of gene to control, p21 (MDA-MB 468; MDA-MB 468, 10 μM): 0.9; Expression ratio of gene to control, p21 (MDA-MB 468; MDA-MB 468, 20 μM): 1.2; Expression of p21 (target gene of p53) (MDA-MB 468; p53 mutant-type MDA-MB 468, FIG. 23): did not affect p21 |
